Reference: patent EP0616804A1 (priority 1993, dated 1994)
Where “and” joins values, the source holds several entries; their conditions need not be identical. Equal values may be shown once. Read-outs that look alike come from different tables or passages of the source.

Columns and labels:
Toxicity (LD50), Table 6 = settings: rat, in vivo, rats, read-out: LD₅₀
Excerpt: The toxicity of gamma-hydroxybutyrate sodium salt to rats compared with antidepressants and anxiolytics known to the prior art is shown in Table 6.

[1] = Light/dark exploration test; assay type: in vivo, mouse; settings: 10 mg/kg ip, total hours (32) referred to all animals, 8 animals, 4 hours; for Dark section: controls 14; for Lit section: controls 18
Description: The test is performed with a cage subdivided into two sections, a dark and a lit one.
Evidence was provided that the mice treated with adequate doses of anxiolytic drugs, e.g. Diazepam or Buspirone, spend a longer time in the lit section than controls.
The anxiolytic activity, if any, of the molecules can be evaluated on the basis of the time spent in the lit section.
The total duration of the test for each group of 8 animals was 4 hours.
The data are expressed as total hours (32) referred to all animals.

[2] = Despair test (Porsolt behavioural test, duration of immobility); assay type: in vivo, Male Swiss mice (CD strain, Charles River); settings: mice; for <%: decrease of immobility vs dose 0; for Duration of immobility: one hour before testing
Description: This behavioural test developed by R.D. Porsolt et al. (Arch. int. Pharmacodyn. 229, 327-336, 1977) is commonly used to evaluate the activity of antidepressant agents.
Male Swiss mice (CD strain, Charles River) weighing 30 g were used and assigned at random to the various treatment groups.
The mice were plunged individually into a Plexiglas cylinder of 25 cm in height and 9 cm in diameter, filled with water at 24°C, for a 6 min latency up to 6 cm from the upper lip.
The duration of the test was 6 minutes. The time during which the animal kept floating passively was measured starting from the 2nd minute (duration of immobility).
One hour before testing, sodium gamma-hydroxybutyrate (NaGHB) as an acqueous suspension additioned of non-ionic surfactant Tween was administered by i.p. injection in a volume of 10 ml/kg, or per os.
Blind tests were performed. The statistical analysis of the data was performed, whenever possible, by Student's t-test, otherwise by Mann Whitney's non-parametric test.

[3] = parameters: species or system Male Sprague-Dawley rats; settings: rat, in vivo
[4] = rats, ip; antidepressants and anxiolytics known to the prior art; cited from earlier work

O=C([O-])CCCO.[Na+] [NaGHB, sodium gamma-hydroxybutyrate]
LD50 (Toxicity (LD50), Table 6; po, os): 12400 mg/kg
LD50 (Toxicity (LD50), Table 6; ip): 3280 mg/kg
Dark section [1]: 9 total hours
Lit section [1]: 23 total hours
<% ([2]; ip, 5 mg/kg): 15%
<% ([2]; ip, 10 mg/kg): 27%
<% ([2]; ip, 20 mg/kg): 36%
<% ([2]; ip, 40 mg/kg): 43%
<% ([2]; per os, 20 mg/kg): 17%
<% ([2]; per os, 50 mg/kg): 40%
<% ([2]; per os, 100 mg/kg): 42%
Duration of immobility ([2]; ip, 5 mg/kg): 179 ± 24 s
Duration of immobility ([2]; ip, 10 mg/kg): 153 ± 19 s
Duration of immobility ([2]; ip, 20 mg/kg): 134 ± 26 s
Duration of immobility ([2]; ip, 40 mg/kg): 120 ± 12 s
Duration of immobility ([2]; per os, 20 mg/kg): 189 ± 23 s
Duration of immobility ([2]; per os, 50 mg/kg): 137 ± 16 s
Duration of immobility ([2]; per os, 100 mg/kg): 133 ± 31 s
mean reaction time [3]: decreased mean reaction time
number of attempts to escape [3]: increased number of attempts to escape
difference between the group of controls and the CNaGHB group ([3]; 10 mg/kg): no significant difference
Mean reaction time, mean ± S.E. ([3]; ip, 10 mg/kg): 5.76±0.34 and 5.4±1.0
No. of escape failures, mean ± S.E. ([3]; ip, 10 mg/kg): 21.3±1.1 and 23.6±2.6

CN1C(=O)CN=C(c2ccccc2)c2cc(Cl)ccc21 [Diazepam]
Dark section [1]: 7 total hours
Lit section [1]: 25 total hours

O=C1CC2(CCCC2)CC(=O)N1CCCCN1CCN(c2ncccn2)CC1 [Buspirone]
Dark section [1]: 10 total hours
Lit section [1]: 22 total hours
LD₅₀ [4]: 136 mg/kg
